This assay has as its system P388 leukemia ip, CD2F1 mice, survival T/C. In words: NCI In Vivo Anticancer Drug Screen. Data for tumor model P388 Leukemia (intraperitoneal) in CD2F1 (CDF1) mice. To be noted: endpoint: median survival time, higher = longer survival. In a few lines:
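Mice carrying the transplanted tumor received test compound or vehicle. Survival was recorded in each group, and the value is the treated-group measurement divided by that of the vehicle-treated control group.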

The mark [1] stands for this setting: dose: 100.0 mg/kg/injection, schedule: Q04DX002 (ip), vehicle: saline with Tween-80.
Where [2] appears, read: dose: 60.0 mg/kg/injection, schedule: Q01DX005 (ip), vehicle: saline with Tween-80.
Setting [3] is: dose: 120.0 mg/kg/injection, schedule: Q01DX005 (ip), vehicle: saline with Tween-80.
Setting [4] is: dose: 240.0 mg/kg/injection, schedule: Q01DX005 (ip), vehicle: saline with Tween-80.
The mark [5] stands for this setting: dose: 12.5 mg/kg/injection, schedule: Q01DX009 (ip), vehicle: saline with Tween-80.
Setting [6] is: dose: 25.0 mg/kg/injection, schedule: Q01DX009 (ip), vehicle: saline with Tween-80.
The mark [7] stands for this setting: dose: 25.0 mg/kg/injection, schedule: Q04DX002 (ip), vehicle: saline with Tween-80.
[8] abbreviates: dose: 50.0 mg/kg/injection, schedule: Q04DX002 (ip), vehicle: saline with Tween-80.
The mark [9] stands for this setting: dose: 50.0 mg/kg/injection, schedule: Q01DX009 (ip), vehicle: saline with Tween-80.

Where “and” joins values, the source holds several entries; their conditions need not be identical. Identical values can stand only once. Toxic doses and inconclusive results are not listed.

In the case of `OC1c2ccccc2-c2ccccc2C1O` (stereo unspecified), the T/C runs as follows: under setting [1], 101 % of control and 102 % of control; (dose: 200.0 mg/kg/injection, schedule: Q04DX002 (ip), vehicle: saline with Tween-80) 101 % of control and 97 % of control; (dose: 400.0 mg/kg/injection, schedule: Q04DX002 (ip), vehicle: saline with Tween-80) 101 % of control.
For the compound `N#Cc1ccccc1NN=Nc1ccccc1-c1nc(N)nc(N)n1`, the T/C (dose: 12.0 mg/kg/injection, schedule: Q04DX003 (ip), vehicle: saline) is 113 % of control; the T/C (dose: 25.0 mg/kg/injection, schedule: Q04DX003 (ip), vehicle: saline) was 113 % of control; the T/C (dose: 50.0 mg/kg/injection, schedule: Q04DX003 (ip), vehicle: saline) is 181 % of control.
On to `CC1C2Cc3ccc(O)cc3C1(C)CCN2C` (stereo unspecified), for which the T/C was 92 % of control under setting [2] and 100 % of control under setting [3].
As to `CN(C(=S)NNC(=O)C1CCC(=O)N1)c1ccccc1` (stereo unspecified), the T/C was 99 % of control under setting [2], 98 % of control under setting [3] and 103 % of control under setting [4].
Regarding `CNC(=O)O[C@H]1C(=O)O[C@@H]2C[C@H]3C(C)=C(O)C(=O)C[C@]3(C)[C@H]3[C@@H](O)[C@H](O)[C@@]4(C(=O)OC)OC[C@]32[C@@H]14`, the T/C is 105 % of control (dose: 1.0 mg/kg/injection, schedule: Q01DX005 (ip), vehicle: Klucel (hydroxypropylcellulose) (HPC)); 105 % of control (dose: 2.0 mg/kg/injection, schedule: Q01DX005 (ip), vehicle: Klucel (hydroxypropylcellulose) (HPC)); 102 % of control and 108 % of control (dose: 4.0 mg/kg/injection, schedule: Q01DX005 (ip), vehicle: Klucel (hydroxypropylcellulose) (HPC)); 102 % of control (dose: 8.0 mg/kg/injection, schedule: Q01DX005 (ip), vehicle: Klucel (hydroxypropylcellulose) (HPC)); 101 % of control (dose: 16.0 mg/kg/injection, schedule: Q01DX005 (ip), vehicle: Klucel (hydroxypropylcellulose) (HPC)); 103 % of control (dose: 125.0 micrograms/kg/injection, schedule: Q01DX005 (ip), vehicle: Klucel (hydroxypropylcellulose) (HPC)). The T/C runs as follows: (dose: 250.0 micrograms/kg/injection, schedule: Q01DX005 (ip), vehicle: Klucel (hydroxypropylcellulose) (HPC)) 95 % of control; (dose: 500.0 micrograms/kg/injection, schedule: Q01DX005 (ip), vehicle: Klucel (hydroxypropylcellulose) (HPC)) 95 % of control; (dose: 1000.0 micrograms/kg/injection, schedule: Q01DX005 (ip), vehicle: Klucel (hydroxypropylcellulose) (HPC)) 99 % of control.
`O=c1[nH]c2c(c(O)c1-c1ccccc1)CCCN2`: the T/C is 102 % of control (dose: 100.0 mg/kg/injection, schedule: Q04DX003 (ip), vehicle: Klucel (hydroxypropylcellulose) (HPC)); 100 % of control (dose: 200.0 mg/kg/injection, schedule: Q04DX003 (ip), vehicle: Klucel (hydroxypropylcellulose) (HPC)); 110 % of control (dose: 400.0 mg/kg/injection, schedule: Q04DX003 (ip), vehicle: Klucel (hydroxypropylcellulose) (HPC)).
For the compound `CC(C)CCSC1=CC(=O)c2ccccc2C1=O`, the T/C runs as follows: (dose: 3.13 mg/kg/injection, schedule: Q01DX009 (ip), vehicle: saline with Tween-80) 99 % of control; (dose: 6.25 mg/kg/injection, schedule: Q01DX009 (ip), vehicle: saline with Tween-80) 109 % of control; under setting [5], 109 % of control; under setting [6], 114 % of control.
Turning to `COC1=C(C)[C@@H]2CC(=O)O[C@@H]3C[C@H]4[C@H](C)C[C@H](OC5OC(CO)C(O)C(O)C5O)C(=O)[C@]4(C)[C@@H](C1=O)[C@@]32C` (stereo partly specified), the T/C (dose: 5.0 mg/kg/injection, schedule: Q01DX005 (ip), vehicle: Klucel (hydroxypropylcellulose) (HPC)) is 103 % of control; the T/C (dose: 10.0 mg/kg/injection, schedule: Q01DX005 (ip), vehicle: Klucel (hydroxypropylcellulose) (HPC)) is 107 % of control; the T/C (dose: 20.0 mg/kg/injection, schedule: Q01DX005 (ip), vehicle: Klucel (hydroxypropylcellulose) (HPC)) is 103 % of control.
Take `COc1ccc(-c2ccc(OC)c(OC)c2OC)c(N)c1`: the T/C runs as follows: (dose: 100.0 mg/kg/injection, schedule: Q04DX003 (ip), vehicle: saline with Tween-80) 99 % of control and 110 % of control; (dose: 200.0 mg/kg/injection, schedule: Q04DX003 (ip), vehicle: saline with Tween-80) 104 % of control and 110 % of control; (dose: 400.0 mg/kg/injection, schedule: Q04DX003 (ip), vehicle: saline with Tween-80) 114 % of control and 115 % of control.
Turning to `Cc1ccc(S(=O)(=O)N/N=C/C(Br)=C(/Br)C(=O)O)cc1`, the T/C reads like this: (dose: 25.0 mg/kg/injection, schedule: Q01DX009 (ip), vehicle: distilled water + Tween-80) 154 % of control and 171 % of control; (dose: 50.0 mg/kg/injection, schedule: Q01DX009 (ip), vehicle: distilled water + Tween-80) 157 % of control and 166 % of control.
With `C1CC[C@]2([C@]34CCCC[C@H]3O4)O[C@@H]2C1`, the T/C (dose: 60.0 mg/kg/injection, schedule: Q01DX005 (ip), vehicle: Klucel (hydroxypropylcellulose) (HPC)) is 99 % of control; the T/C (dose: 120.0 mg/kg/injection, schedule: Q01DX005 (ip), vehicle: Klucel (hydroxypropylcellulose) (HPC)) was 100 % of control; the T/C (dose: 240.0 mg/kg/injection, schedule: Q01DX005 (ip), vehicle: Klucel (hydroxypropylcellulose) (HPC)) is 104 % of control.
In the case of `NC(N)=NS(=O)(=O)c1ccc(N=Cc2c3ccccc3nc3cc(Cl)ccc23)cc1`, the T/C runs as follows: under setting [2], 91 % of control; under setting [3], 91 % of control; under setting [4], 91 % of control.
As for `Cc1ccc(N2C(=O)N(c3ccc(C)cc3)C3(Sc4ccccc4N3C)C2=O)cc1` (stereo unspecified), the T/C is, setting by setting: under setting [7], 95 % of control; under setting [8], 92 % of control; under setting [1], 89 % of control.
Take `O=C1C=CC(=O)C2C1CC=C1CCCCC12` (stereo unspecified): the T/C by setting is: (dose: 7.5 mg/kg/injection, schedule: Q01DX009 (ip), vehicle: saline with Tween-80) 106 % of control; (dose: 15.0 mg/kg/injection, schedule: Q01DX009 (ip), vehicle: saline with Tween-80) 109 % of control; (dose: 30.0 mg/kg/injection, schedule: Q01DX009 (ip), vehicle: saline with Tween-80) 103 % of control.
Take `CCCC(C)(O)/C(C)=N/O` (stereo unspecified): the T/C runs as follows: under setting [5], 98 % of control; under setting [6], 101 % of control; under setting [9], 104 % of control and 87 % of control; (dose: 200.0 mg/kg/injection, schedule: Q01DX009 (ip), vehicle: saline with Tween-80) 90 % of control.
As for `O=c1c2ccccc2nc2ccc(Cl)nn12`, the T/C runs as follows: under setting [9], 95 % of control; (dose: 100.0 mg/kg/injection, schedule: Q01DX009 (ip), vehicle: saline with Tween-80) 100 % of control.
On to `COCCC/C=C\N1CCOCC1`, for which the T/C reads like this: (dose: 50.0 mg/kg/injection, schedule: Q01DX009 (ip), vehicle: saline) 99 % of control; (dose: 100.0 mg/kg/injection, schedule: Q01DX009 (ip), vehicle: saline) 101 % of control; (dose: 200.0 mg/kg/injection, schedule: Q01DX009 (ip), vehicle: saline) 95 % of control.
Turning to `CCOC(=O)C1=C(C)NC(=O)NC1c1cc(OC)c(OC)c(OC)c1` (stereo unspecified), the T/C was 98 % of control (dose: 50.0 mg/kg/injection, schedule: Q01DX005 (ip), vehicle: Klucel (hydroxypropylcellulose) (HPC)); 96 % of control (dose: 100.0 mg/kg/injection, schedule: Q01DX005 (ip), vehicle: Klucel (hydroxypropylcellulose) (HPC)); 94 % of control (dose: 200.0 mg/kg/injection, schedule: Q01DX005 (ip), vehicle: Klucel (hydroxypropylcellulose) (HPC)).
Take `CN=C(N)N/N=C(\C)c1ccc2c(c1)Cc1cc(Cl)ccc1-2`: the T/C by setting is: (dose: 12.5 mg/kg/injection, schedule: Q04DX002 (ip), vehicle: saline with Tween-80) 112 % of control; under setting [7], 113 % of control and 118 % of control; under setting [8], 113 % of control and 118 % of control; under setting [1], 102 % of control.
For the compound `CC1(C)CC(=O)OC/C=C\CC(Cc2ccccc2)C(=O)C1` (stereo unspecified), the T/C by setting is: (dose: 100.0 mg/kg/injection, schedule: Q04DX003 (ip), vehicle: saline) 104 % of control; (dose: 200.0 mg/kg/injection, schedule: Q04DX003 (ip), vehicle: saline) 97 % of control; (dose: 400.0 mg/kg/injection, schedule: Q04DX003 (ip), vehicle: saline) 96 % of control.

These data come from PubChem BioAssay AID330 (DTP/NCI, 2004).
